Results taken from US20230295162A1 (EÖTVÖS LORÁND TUDOMÁNYEGYETEM, priority 2020, published 2023).
Read-outs that look alike come from different tables or passages of the source.

Columns and labels:
[1] = test system: PC-3 (prostate, adenocarcinoma) cells; experiment: Cell viability assay, CellTiter-Glo (Example 21); format: cell-based, human; details: 72 h treatment
Method: (§1) Effect of the selected compounds on cancer cell viability was measured via CellTiter-Glo® luminescent cell viability assay (Promega, Madison, WI, USA) according to the manufacturer's instructions. Cells were plated onto a flat-bottomed, white 96 well plate (BRANDplates®, cat. no.: 781965). Density of the seeded cells was optimized based on their size and growth rate, as the follows: Panc-1:750 cells/well; DU 145, PC-3, Capan-1, MIA PaCa-2, SCC-25, FaDu and EBC-1: 1000 cells/well; LNCaP, Detroit 562, MDA-MB-231 and MDA-MB-453 1500 cells/well. […] After the treatment, the luminescence signal was recorded using a microplate reader (BioTek Synergy 2 Multi-Mode Reader, BioTek, Winooski, VT, USA). Dose-response curves were generated by GraphPad Prism 8.4.2. software using a non-linear regression model (variable slope, four parameters), (see FIGS. 12-51).

[2] = test system: EBC-1 (lung, squamous cell carcinoma) cells; experiment: Cell viability assay, CellTiter-Glo (Example 21); format: cell-based, human; details: 72 h treatment
Method: as §1

[3] = test system: MIA PaCa-2 (pancreas, carcinoma) cells; experiment: Cell viability assay, CellTiter-Glo (Example 21); format: cell-based, human; details: 72 h treatment
Method: as §1

[4] = test system: LNCaP (prostate, carcinoma) cells; experiment: Cell viability assay, CellTiter-Glo (Example 21); format: cell-based, human; details: 72 h
Method: as §1

[5] = test system: Panc-1 (pancreas, carcinoma) cells; experiment: Cell viability assay, CellTiter-Glo (Example 21); format: cell-based, human; details: 72 h treatment
Method: as §1

[6] = test system: DU 145 (prostate, carcinoma) cells; experiment: Cell viability assay, CellTiter-Glo (Example 21); format: cell-based, human; details: 72 h
Method: as §1

[7] = test system: Capan-1 (pancreas, adenocarcinoma) cells; experiment: Cell viability assay, CellTiter-Glo (Example 21); format: cell-based, human; details: 72 h treatment
Method: as §1

[8] = test system: MDA-MB-231 (breast, adenocarcinoma) cells; experiment: Cell viability assay, CellTiter-Glo (Example 21); format: cell-based, human; details: 72 h treatment
Method: as §1

[9] = test system: SCC-25 (tongue, squamous cell carcinoma) cells; experiment: Cell viability assay, CellTiter-Glo (Example 21); format: cell-based, human; details: 72 h treatment
Method: as §1

[10] = test system: FaDu (pharynx, squamous cell carcinoma) cells; experiment: Cell viability assay, CellTiter-Glo (Example 21); format: cell-based, human; details: 72 h treatment
Method: as §1

[11] = test system: Detroit 562 (pharynx, carcinoma) cells; experiment: Cell viability assay, CellTiter-Glo (Example 21); format: cell-based, human; details: 72 h treatment
Method: as §1

[12] = test system: MDA-MB-453 (breast, carcinoma) cells; experiment: Cell viability assay, CellTiter-Glo (Example 21); format: cell-based, human; details: 72 h treatment
Method: as §1

Panc-1 human cell line = experiment: Cytotoxicity on Panc-1, xCELLigence SP, IC50 after 24 h, 48 h, 72 h and 96 h (Example 22)
[13] = test system: PANC-1 (human pancreatic carcinoma) cells; experiment: Impedance-based viability assay (xCELLigence SP), long treatment; format: cell-based; details: 72 h, read-out: cytotoxicity expressed in IC50, PANC-1
Text: (Gibco®/Invitrogen Corporation, New York, NY, USA).
Data obtained from each experiment represent mathematical averages.

Q: For O=C1C2=C(CCN(Cc3cccc(F)c3)C2)N2CCN=C2N1Cc1ccc(C(F)(F)F)cc1 [I/3, reference compound], which “PC-3 (prostate, adenocarcinoma) cell viability (% of control)” value ([1]; 3.7 nM) is on record?
A: 100.8 ± 4.0 % of control

Q: What about the “PC-3 (prostate, adenocarcinoma) cell viability (% of control)” value ([1]; 11.1 nM) of the same compound?
A: 110.2 ± 4.1 % of control

Q: And the “PC-3 (prostate, adenocarcinoma) cell viability (% of control)” value ([1]; 100 nM)?
A: 34.7 ± 1.0 % of control

Q: What about the “PC-3 (prostate, adenocarcinoma) cell viability (% of control)” value ([1]; 300 nM) of the same compound?
A: 32.3 ± 2.6 % of control

Q: And the “EBC-1 (lung, squamous cell carcinoma) cell viability (% of control)” value ([2]; 3.7 nM)?
A: 97.8 ± 4.0 % of control

Q: And the “EBC-1 (lung, squamous cell carcinoma) cell viability (% of control)” value ([2]; 11.1 nM)?
A: 96.3 ± 1.4 % of control

Q: What about the “EBC-1 (lung, squamous cell carcinoma) cell viability (% of control)” value ([2]; 100 nM) of the same compound?
A: 25.1 ± 0.2 % of control

Q: What about the “EBC-1 (lung, squamous cell carcinoma) cell viability (% of control)” value ([2]; 300 nM) of the same compound?
A: 22.2 ± 0.1 % of control

Q: What about the “MIA PaCa-2 (pancreas, carcinoma) cell viability (% of control)” value ([3]; 3.7 nM) of the same compound?
A: 107.1 ± 16.4 % of control

Q: What about the “MIA PaCa-2 (pancreas, carcinoma) cell viability (% of control)” value ([3]; 11.1 nM) of the same compound?
A: 105.2 ± 3.4 % of control

Q: And the “MIA PaCa-2 (pancreas, carcinoma) cell viability (% of control)” value ([3]; 100 nM)?
A: 17.5 ± 7.9 % of control

Q: What about the “MIA PaCa-2 (pancreas, carcinoma) cell viability (% of control)” value ([3]; 300 nM) of the same compound?
A: 17.2 ± 7.5 % of control

Q: And the LNCaP cell viability ([4]; 3.7 nM)?
A: 98.7 ± 7.4 % of control

Q: What about the LNCaP cell viability ([4]; 11.1 nM) of the same compound?
A: 95.0 ± 7.4 % of control

Q: What about the LNCaP cell viability ([4]; 100 nM) of the same compound?
A: 13.8 ± 1.7 % of control

Q: What about the LNCaP cell viability ([4]; 300 nM) of the same compound?
A: 12.7 ± 1.2 % of control

Q: And the “Panc-1 (pancreas, carcinoma) cell viability (% of control)” value ([5]; 3.7 nM)?
A: 105.8 ± 4.0 % of control

Q: And the “Panc-1 (pancreas, carcinoma) cell viability (% of control)” value ([5]; 11.1 nM)?
A: 105.7 ± 4.2 % of control

Q: And the “Panc-1 (pancreas, carcinoma) cell viability (% of control)” value ([5]; 100 nM)?
A: 59.9 ± 17.3 % of control

Q: And the “Panc-1 (pancreas, carcinoma) cell viability (% of control)” value ([5]; 300 nM)?
A: 53.9 ± 6.5 % of control

Q: And the “DU 145 cell viability” value ([6]; 3.7 nM)?
A: 102.0 ± 3.5 % of control

Q: And the “DU 145 cell viability” value ([6]; 11.1 nM)?
A: 95.9 ± 5.1 % of control

Q: And the “DU 145 cell viability” value ([6]; 100 nM)?
A: 7.1 ± 1.6 % of control

Q: What about the “DU 145 cell viability” value ([6]; 300 nM) of the same compound?
A: 7.2 ± 1.2 % of control

Q: And the “Capan-1 (pancreas, adenocarcinoma) cell viability (% of control)” value ([7]; 3.7 nM)?
A: 102.7 ± 6.9 % of control

Q: And the “Capan-1 (pancreas, adenocarcinoma) cell viability (% of control)” value ([7]; 11.1 nM)?
A: 101.5 ± 5.5 % of control

Q: And the “Capan-1 (pancreas, adenocarcinoma) cell viability (% of control)” value ([7]; 100 nM)?
A: 38.7 ± 2.8 % of control

Q: And the “Capan-1 (pancreas, adenocarcinoma) cell viability (% of control)” value ([7]; 300 nM)?
A: 33.0 ± 2.2 % of control

Q: And the “MDA-MB-231 (breast, adenocarcinoma) cell viability (% of control)” value ([8]; 3.7 nM)?
A: 101.4 ± 1.4 % of control

Q: And the “MDA-MB-231 (breast, adenocarcinoma) cell viability (% of control)” value ([8]; 11.1 nM)?
A: 99.8 ± 1.8 % of control

Q: What about the “MDA-MB-231 (breast, adenocarcinoma) cell viability (% of control)” value ([8]; 100 nM) of the same compound?
A: 56.5 ± 3.4 % of control

Q: What about the “MDA-MB-231 (breast, adenocarcinoma) cell viability (% of control)” value ([8]; 300 nM) of the same compound?
A: 53.7 ± 3.1 % of control

Q: And the “SCC-25 (tongue, squamous cell carcinoma) cell viability (% of control)” value ([9]; 3.7 nM)?
A: 101.0 ± 4.9 % of control

Q: And the “SCC-25 (tongue, squamous cell carcinoma) cell viability (% of control)” value ([9]; 11.1 nM)?
A: 95.1 ± 5.1 % of control

Q: What about the “SCC-25 (tongue, squamous cell carcinoma) cell viability (% of control)” value ([9]; 100 nM) of the same compound?
A: 34.9 ± 3.9 % of control

Q: What about the “SCC-25 (tongue, squamous cell carcinoma) cell viability (% of control)” value ([9]; 300 nM) of the same compound?
A: 33.1 ± 1.7 % of control

Q: What about the “FaDu (pharynx, squamous cell carcinoma) cell viability (% of control)” value (“FaDu … (% of control)” for short) ([10]; 3.7 nM) of the same compound?
A: 101.6 ± 3.4 % of control

Q: What about the “FaDu … (% of control)” value ([10]; 11.1 nM) of the same compound?
A: 100.9 ± 5.9 % of control

Q: And the “FaDu … (% of control)” value ([10]; 100 nM)?
A: 26.2 ± 7.9 % of control

Q: What about the “FaDu … (% of control)” value ([10]; 300 nM) of the same compound?
A: 22.4 ± 5.9 % of control

Q: And the “Detroit 562 (pharynx, carcinoma) cell viability (% of control)” value ([11]; 3.7 nM)?
A: 99.5 ± 8.4 % of control

Q: And the “Detroit 562 (pharynx, carcinoma) cell viability (% of control)” value ([11]; 11.1 nM)?
A: 44.3 ± 11.0 % of control

Q: And the “Detroit 562 (pharynx, carcinoma) cell viability (% of control)” value ([11]; 100 nM)?
A: 28.9 ± 5.3 % of control

Q: And the “Detroit 562 (pharynx, carcinoma) cell viability (% of control)” value ([11]; 300 nM)?
A: 28.7 ± 4.1 % of control

Q: What about the “MDA-MB-453 (breast, carcinoma) cell viability (% of control)” value ([12]; 3.7 nM) of the same compound?
A: 110.3 ± 7.7 % of control

Q: What about the “MDA-MB-453 (breast, carcinoma) cell viability (% of control)” value ([12]; 11.1 nM) of the same compound?
A: 97.0 ± 13.3 % of control

Q: And the “MDA-MB-453 (breast, carcinoma) cell viability (% of control)” value ([12]; 100 nM)?
A: 33.2 ± 2.0 % of control

Q: And the “MDA-MB-453 (breast, carcinoma) cell viability (% of control)” value ([12]; 300 nM)?
A: 29.8 ± 1.5 % of control

Q: And the IC50 (Panc-1 human cell line; PANC-1, 72 h, read-out: IC50 (72 h) [nM])?
A: 45.3 ± 3.34 nM

Q: What about the IC50 (Panc-1 human cell line; PANC-1, 96 h, read-out: IC50 (96 h) [nM]) of the same compound?
A: 22.6 ± 0.856 nM

Q: And the IC50 [13]?
A: 44 nM
